Read-outs that look alike come from different tables or passages of the source. Values belong to the compound of their own block, whether it stands above or below them.
Key:
[1] = test system: HL-60 acute promyelocytic leukemia cells; test: Cell proliferation assay (MTS) on HL-60 leukemia cells; type: cell-based, human;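 also: cells exposed to serially diluted compound for 3 days at 37 °C, then viable cell number read via MTS conversion to coloured formazan by metabolically active cells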
Procedure: (§1) All of the following cell lines were maintained under a CO2 humidified atmosphere at 37° C. The culture media were changed every 3-4 days and the cells were split once a week.
(§2) For the assay, the culture medium was the same.
(§3) The cell proliferation assay was performed using 3-(4,5-dimethylthiazol-2-yl)-5-(3-carboxymethoxyphenyl)2-(4-sulfophenyl)-2H-tetrazolium (MTS) (Cell Titer 96 Aqueous, Promega, USA). MTS is converted into water-soluble colored formazan by dehydrogenase enzymes present in metabolically active cells, which allows the measurement of the number of viable cells.
(§4) The cells were incubated at 37° C. and 5% CO2. The steroid derivatives of the present disclosure were dissolved in ethanol to prepare the 1×10^−2 M stock solutions. The stock solutions and doxorubicin (DOX) (Novapharm, Toronto, Canada) were diluted at multiple concentrations with culture media, added to each well, as indicated, and incubated for 3 days. Following each treatment, 20 μl MTS was added to each well and the mix was incubated for 4 h.

in vivo = settings: male, Sprague-Dawley, rat, sc, 2.3 mg/kg
[2] = Plasmatic concentration (AUC) of aminosteroids after a single subcutaneous injection in rat; settings: 2.3 mg/kg
K-562 leukemia cells = test: Cell proliferation assay (MTS) on K-562 leukemia cells; type: cell-based; settings: Table 3, 3 days incubation
Procedure: as §1, §2, §3, §4

[3] = test system: OVCAR-3 ovarian cancer cells; test: Cell proliferation assay (MTS) on OVCAR-3 ovarian cancer cells; type: cell-based; settings: Table 3, 3 days incubation, MTS
From the text: For the assay, the culture medium was the same, but without estradiol.

[4] = test system: MCF-7 breast cancer cells; test: Cell proliferation assay (MTS) on MCF-7 breast cancer cells; type: cell-based, human; settings: Table 3, 3 days incubation
Procedure: MCF-7 breast cancer cells were maintained in Dulbecco's Modified Eagle's Medium (DMEM) containing a nutriment mixture F-12 ham (DME-F12) (Sigma, Saint Louis, USA) supplemented with 5% (v/v) fetal bovine serum (FBS), L-glutamine ([…]), penicillin (100 IU/ml), streptomycin sulphate (50 μg/ml) and estradiol (1 nM). For the assay, DME-F12 was supplemented with 5% (v/v) charcoal-strippes FBS, insulin (50 ng/ml) and the same concentrations of antibiotics as above.

[5] = test system: LNCaP prostate cancer cells; test: Cell proliferation assay (MTS) on LNCaP prostate cancer cells; type: cell-based; settings: Table 3, 3 days incubation
Procedure: as §3, §4

[6] = test system: PC-3 (AR−) prostate cancer cells; test: Cell proliferation assay (MTS) on PC-3 (AR−) prostate cancer cells; type: cell-based; settings: Table 3, 3 days incubation
Procedure: as §1, §2, §3, §4

[7] = test system: WI-38 diploid fibroblasts; test: Cell proliferation assay (MTS) on WI-38 normal fibroblasts; type: cell-based, human; settings: Table 3, normal cells, 3 days incubation
[8] = test system: Shionogi mammary carcinoma cells (AR+); test: Cell proliferation assay (MTS) on Shionogi mammary carcinoma cells; type: cell-based; settings: Table 3, 3 days incubation
Procedure: Shionogi mammary carcinoma cells bearing androgen-sensitive (AR+) were routinely grown in Eagle's Minimal Essential Medium (MEM) (Sigma, Saint Louis, USA) supplemented with 5% (v/v) fetal bovine serum (FBS), penicillin (100 IU/ml), streptomycin sulphate (50 μg/ml), 1% (v/v) non-essential amino acids and dihydrotestosterone DHT (10^−8 M). For the assay, MEM devoid of the pH indicator phenol red was supplemented with 2% (v/v) charcoal-strippes FBS and the same concentrations of antibiotics and non-essential amino acids as above.

[9] = test system: MDA-MB-231 (ER−) breast cancer cells; test: Cell proliferation assay (MTS) on MDA-MB-231 (ER−) breast cancer cells; type: cell-based; settings: Table 3, 3 days incubation
Procedure: as §1, §2, §3, §4

[10] = test system: normal lymphocytes from peripheral blood; test: Cell proliferation assay (MTS) on normal lymphocytes; settings: read-out: IC50 Lymph Norm.
Procedure: as §1, §2, §3, §4

[11] = Homo sapiens, Table 4, HL-60 cancer cell line, read-out: IC50
[12] = Homo sapiens, Table 6, HL-60 cancer cell line, read-out: IC50 (HL-60)

SMILES: C[C@]12CC[C@H]3[C@@H](CCC4C[C@H](O)[C@@H](N5CCN(C(=O)[C@@H]6CCCN6C(=O)c6cc7ccccc7cn6)CC5)C[C@@]43C)[C@@H]1CC[C@@H]2O (stereo partly drawn) [31 (AH-38), {4-[(2β,3α,17β)-3,17-dihydroxyandrostan-2-yl]piperazin-1-yl}[(2S)-1-(isoquinolin-3-ylcarbonyl)pyrrolidin-2-yl]methanone]
IC50 [1, 11]: 1.6 µM
IC50 [1, 12]: 1.6 µM
AUC(0-t) (in vivo; AUC (0-3 h)): 244 ng·h/mL
AUC(0-t) (in vivo; AUC (0-12 h)): 991 ng·h/mL

IC50 ([1]; Table 4, HL-60 cancer cell line, read-out: IC50): 1.9 µM
IC50 ([1]; Table 6, HL-60 cancer cell line, read-out: IC50 (HL-60)): 1.9 µM
AUC (0-3 h) ([2]; Table 6, subcutaneous one time): 278 ng·h/mL
AUC (0-12 h) ([2]; Table 6, subcutaneous one time): 1338 ng·h/mL
SMILES: C#C[C@]1(O)CC[C@H]2[C@@H]3CC[C@H]4C[C@H](O)[C@@H](N5CCN(C(=O)[C@@H]6CCCN6C(=O)c6ccc7ccccc7c6)CC5)C[C@]4(C)[C@H]3CC[C@@]21C [26 (AH-71), {4-[(2β,3α,5α,17α)-3,17-dihydroxypregn-20-yn-2-yl]piperazin-1-yl}[(2S)-1-(naphthalen-2-ylcarbonyl)pyrrolidin-2-yl]methanone]

SMILES: C[C@]12CC[C@H]3[C@@H](CCC4C[C@H](O)[C@@H](N5CCN(C(=O)[C@@H]6CCCN6C(=O)c6ccc7ccccc7n6)CC5)C[C@@]43C)[C@@H]1CC[C@@H]2O (stereo partly drawn) [33 (AH-62), {4-[(2β,3α,17β)-3,17-dihydroxyandrostan-2-yl]piperazin-1-yl}[(2S)-1-(quinolin-2-ylcarbonyl)pyrrolidin-2-yl]methanone]
IC50 [1, 11]: 1.4 µM
IC50 [1, 12]: 1.4 µM
AUC(0-t) (in vivo; AUC (0-3 h)): 185 ng·h/mL
AUC(0-t) (in vivo; AUC (0-12 h)): 752 ng·h/mL

SMILES: C[C@]12CC[C@H]3[C@@H](CCC4C[C@H](OS(N)(=O)=O)[C@@H](N5CCN(C(=O)[C@@H]6CCCN6C(=O)c6ccc7ccccc7c6)CC5)C[C@@]43C)[C@@H]1CC[C@@H]2OS(N)(=O)=O (stereo partly drawn) [39 (AH-70), (2β,3α,17β)-2-{4-[1-(naphthalen-2-ylcarbonyl)-L-prolyl]piperazin-1-yl}androstane-3,17-diyl disulfamate]
IC50 [1, 11]: 5 µM
IC50 [1, 12]: 5 µM
AUC(0-t) (in vivo; AUC (0-3 h)): 11 ng·h/mL
AUC(0-t) (in vivo; AUC (0-12 h)): 67 ng·h/mL

SMILES: CC(=O)c1cccc(C(=O)N[C@@H](Cc2ccccc2)C(=O)N2CCN([C@H]3C[C@@]4(C)[C@@H](CC[C@@H]5[C@@H]4CC[C@]4(C)[C@@H](O)CC[C@@H]54)C[C@@H]3O)CC2)c1 [FC-48, 3-acetyl-N-[(2S)-1-{4-[(2β,3α,5α,17β)-3,17-Dihydroxyandrostan-2-yl]piperazin-1-yl}1-oxo-3-phenylpropan-2-yl]benzamide]
IC50 ([1]; Homo sapiens, HL-60, 72 h, Table 3, 3 days incubation, MTS, read-out: IC50 HL-60): 1.8 µM
IC50 (K-562 leukemia cells; Homo sapiens, K562, 72 h): > 10 µM
IC50 ([3]; Homo sapiens, OVCAR-3, 72 h): 1.6 µM
IC50 ([4]; Homo sapiens, MCF7, 72 h): 1.5 µM
AUC(0-t) (in vivo; AUC (7 h)): 290 ng·h/mL
AUC(0-t) (in vivo; AUC (24 h)): 555 ng·h/mL
AUC(0-t) (in vivo; AUC(12 h)): 413 ng·h/mL
IC50 ([5]; Homo sapiens, LNCaP, 72 h): 2.2 µM
IC50 ([6]; PC3/AR, 72 h): > 10 µM
IC50 ([7]; Homo sapiens, WI-38, 72 h): > 10 µM
IC50 ([8]; 72 h): 1.3 µM
IC50 ([9]; Homo sapiens, MDA-MB-231, 72 h): > 10 µM
IC50 ([10]; Lymphocyte, 72 h): > 50 µM

SMILES: C[C@]12C[C@H](N3CCN(C(=O)[C@@H]4CCCN4C(=O)/C=C/c4ccccc4)CC3)[C@@H](O)C[C@@H]1CC[C@@H]1[C@@H]2CC[C@]2(C)[C@@H](O)CC[C@@H]12 [PC-42]
IC50 ([1]; Table 3, 3 days incubation, MTS, read-out: IC50 HL-60): 1.5 µM
IC50 (K-562 leukemia cells): 9.3 µM
IC50 [3]: 0.8 µM
IC50 [4]: 0.4 µM
IC50 [5]: 0.5 µM
IC50 [6]: 4 µM
IC50 [7]: > 10 µM
IC50 [8]: 0.2 µM
IC50 [9]: > 10 µM
IC50 ([10]; Table 3, normal lymphocytes, 3 days incubation, MTS): 7.9 µM
AUC (7 h) ([2]; Table 5, subcutaneous one time): 641 ng·h/mL
AUC (24 h) ([2]; Table 5, subcutaneous one time): 767 ng·h/mL
AUC(12 h) ([2]; Table 5, subcutaneous one time): 751 ng·h/mL

SMILES: CO[C@H]1CC[C@H]2[C@@H]3CCC4C[C@H](O)[C@@H](N5CCN(C(=O)[C@@H]6CCCN6C(=O)c6ccc7ccccc7c6)CC5)C[C@]4(C)[C@H]3CC[C@]12C (stereo partly drawn) [37 (AH-55), {4-[(2β,3α,17β)-3-hydroxy-17-methoxyandrostan-2-yl]piperazin-1-yl}[(2S)-1-(naphthalen-2-ylcarbonyl)pyrrolidin-2-yl]methanone]
IC50 [1, 11]: 4.5 µM
IC50 [1, 12]: 4.5 µM
AUC(0-t) (in vivo; AUC (0-3 h)): 50 ng·h/mL
AUC(0-t) (in vivo; AUC (0-12 h)): 234 ng·h/mL

— patent US8653054B2, “2-(N-substituted piperazinyl) steroid derivatives” (Universite Laval, priority 2008, dated 2014)
